Measured values reported in the METLIN SMRT retention time set (Domingo-Almenara et al. 2019).

Experiment: gradient 5% acetonitrile 3 min, to 50% in 2 min, to 85% in 15 min, held 3 min, 100 µL/min
Conditions: column: Zorbax Extend-C18 2.1 x 50 mm; eluents: water / acetonitrile, 0.1% formic acid
Procedure, shortened: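 Retention times of pure standards were taken from adduct peaks that were selected by computer and manually inspected. Over 3 months, mixtures of ~100 molecules were run by HPLC–quadrupole time-of-flight mass spectrometry in positive and negative ionization mode. The Zorbax Extend-C18 column (2.1 × 50 mm, 1.8 μm) ran at 100 μL/min in water and acetonitrile, each containing 0.1% formic acid, with 40 μL dead volume and 900 μL dwell volume.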

Row | SMILES | RP-LC retention time
1 | CN1C(=O)c2cc(C(=O)NCCCN3CCc4ccccc4C3)nn2CC1(C)C(=O)NC1CCCC1 (stereo not drawn) | 623 s
2 | CCC1=C(C(=O)Nc2ccccc2)C2CCCC3(C2)NCCCN13 (stereo not drawn) | 611 s
3 | CCOC(=O)C1CCN(c2nc(=O)[nH]c3ccccc23)CC1 | 646 s
4 | Cc1nn(-c2ccccc2)c2c1C(c1ccc([N+](=O)[O-])cc1)C(C#N)=C(N)O2 (stereo not drawn) | 760 s
5 | CCn1c(CCc2ccccc2NS(=O)(=O)c2cc(F)ccc2F)nc2ccccc21 | 764 s
6 | CCC(CO)Nc1nc2ccc(Cl)cc2c2ccccc12 (stereo not drawn) | 732 s
7 | Cc1ccc(C(C)C)c(OCC(=O)Nc2ccc(C(=O)O)cc2)c1 | 929 s
8 | COCCN1C(=O)CC[C@]2(C(=O)NCc3cc(F)ccc3F)CCCC[C@@H]12 | 724 s
9 | Cc1cc(C)cc(C(=O)NC(c2ccccc2)c2nnc(N3CCCC3)o2)c1 (stereo not drawn) | 868 s
10 | O=C(Cc1cccs1)N1CCc2c([nH]c3ccccc23)C1c1ccc(Cl)cc1 (stereo not drawn) | 1220 s
11 | COc1ccc(-n2ccc(=O)c(-c3nc(-c4cccc(F)c4)no3)n2)cc1 | 868 s
12 | Cc1nn(-c2nc(-c3ccc(Cl)cc3)cs2)c(C)c1CC(=O)Nc1ccccc1F | 1260 s
13 | O=c1c2nc(-c3ccc4c(c3)OCO4)cn2ccn1-c1ccc(F)cc1 | 772 s
14 | COCCc1nncn1C1CCN(C(=O)c2cc(Cl)ccc2F)CC1 | 657 s
15 | Cc1cccc(S(=O)(=O)NC2CCN(c3ccc(F)cc3)C2=O)c1 (stereo not drawn) | 928 s
16 | COC(=O)c1cc2n(n1)CC(C)(C(=O)NC1CCCC1)N(c1ccc(F)cc1C)C2=O (stereo not drawn) | 845 s
17 | Cc1noc(C)c1Cc1ccc(C(=O)N(C)C2CCc3nnc(C)n3CC2)o1 (stereo not drawn) | 602 s
18 | Cc1c(-c2noc(C(=O)NCCN3CCC(C)CC3)n2)oc2ccccc12 | 706 s
19 | Cc1oc2cc3oc(=O)c(CC(=O)N4CCC(C(N)=O)CC4)c(C)c3cc2c1C | 697 s
20 | COc1ccc(CCc2nc3nccc(-c4ccncc4)n3n2)cc1 | 697 s
21 | CC1(C(=O)NCc2ccccc2)CN(S(C)(=O)=O)CC(=O)N1CCc1ccc(Cl)cc1 (stereo not drawn) | 874 s
22 | COc1ccc(NC(=O)N2CCC3(CC2)NC(=O)c2cc(Cl)ccc2N3C)cc1OC | 722 s

Row | SMILES | RP-LC retention time
23 | COc1ccc(OCC(=O)Nc2ccc3c(c2)N(C(=O)c2ccco2)CCC3)cc1 | 861 s
24 | O=c1c2scc(-c3cccc(F)c3)c2ncn1Cc1cccnc1 | 699 s
25 | Cn1cnc(S(=O)(=O)N2CCN(c3ccccn3)CC2)c1 | 536 s
26 | Cn1nc(-c2ccccc2)c2ccccc2c1=O | 799 s
27 | COc1ccc(-c2nc(NC3CCCCCC3)c3ccccc3n2)cc1 | 934 s
28 | COc1ccc(-c2nc3cnccn3c2Nc2cccc(Cl)c2)cc1OC | 817 s
29 | CCn1c(SCC(=O)N2CCC(C(N)=O)CC2)nnc1-c1sc2ncccc2c1N | 603 s
30 | CCc1nc(-c2ccc(-c3noc(-c4ccncc4)n3)cc2)cs1 | 1230 s
31 | O=C(Nc1ccccc1)C1CC(=O)N(c2ccc3c(c2)CCN3C(=O)C2CCC2)C1 (stereo not drawn) | 792 s
32 | Cc1ccc(C)c(S(=O)(=O)N2CCC3(CC2)NCCCN=C3NC2CCCCC2)c1 | 648 s
33 | O=C1CC(c2nc(-c3ccc4c(c3)OCO4)no2)CN1c1ccc2c(c1)OCO2 (stereo not drawn) | 862 s
34 | CCc1nnc2nc(N3CCN(C(=O)Cc4cccs4)CC3)cc(C)n12 | 613 s
35 | Cc1cc(C)cc(NC(=O)COc2cccc3c(=O)n(C)ccc23)c1 | 844 s
36 | COc1ccc(-c2nc3ncccn3c2Nc2cccc(Cl)c2C)cc1 | 845 s
37 | CCN(CC)S(=O)(=O)c1ccc2c(c1)N(CC(=O)NC1CCCC1)C(=O)C1CCCCN21 (stereo not drawn) | 927 s
38 | CCN(CC)c1nc2cc(C(=O)OC)ccc2c(=O)n1-c1cccc(OC)c1 | 1110 s
39 | Cc1ccc(C)c(CNC(=O)CN2CCN(Cc3ccc(F)cc3)C2=O)c1 | 862 s
40 | Cc1cc2nn(CC(=O)N3CCCC3)c(=O)n2c(Nc2ccc(C)c(F)c2)n1 | 922 s
41 | C#CCN[C@@H]1CCc2ccccc21 | 613 s
42 | Cc1ccn2c(NC(=O)COc3ccc(Cl)cc3)c(-c3ccccc3)nc2c1 | 714 s
43 | CCOc1cc([C@@H](CS(C)(=O)=O)N2C(=O)c3cccc(NC(C)=O)c3C2=O)ccc1OC | 859 s
44 | CCS(=O)(=O)N1CCC2(CC1)NC(=O)N(Cc1ccc(Cl)cc1)C2=O | 767 s

Row | SMILES | RP-LC retention time
45 | COc1ccc(CNC(=O)C2CCCN(c3ccc(=O)n(-c4cccc(Cl)c4)n3)C2)cc1OC (stereo not drawn) | 798 s
46 | COCCNC(=O)c1ccc2c(c1)N(Cc1ccc(C)cc1)C(=O)CO2 | 748 s
47 | O=C(CCc1nnc2c3cc(-c4ccc(Cl)cc4)nn3ccn12)N1CCN(c2ccccn2)CC1 | 955 s
48 | CC(=O)N1C[C@@H](C(=O)NCCc2c(C)noc2C)[C@H](c2nc(C)no2)C1 | 609 s
49 | COc1ccc(C(=O)CSc2nc(-c3ccc(OC)cc3)ns2)cc1 | 1090 s
50 | O=C(c1ccc(F)cc1Cl)N1CCN(C(=O)c2nnn3c2COC(c2ccccc2)C3)CC1 (stereo not drawn) | 887 s
51 | O=C(NC1CCCCCC1)C1CCN(C(=O)c2ncn3c2COC(c2ccc(Cl)cc2)C3)CC1 (stereo not drawn) | 900 s
52 | O=C(Cn1cccc1-c1nnc(C2CCC2)o1)N1CCN(c2ccccc2)CC1 | 898 s
53 | COc1cc(NC(=O)C2CCCN(c3cc(=O)n(C)c(=O)n3C)C2)cc(OC)c1 (stereo not drawn) | 708 s
54 | CCC(C)NC(=O)NCCc1nc2cccnc2n1Cc1ccccc1 (stereo not drawn) | 685 s
55 | CCOc1cc(-c2ccc(C)cc2)nc2ccc(NC(=O)c3ccco3)cc12 | 764 s
56 | CCOc1ccc(-c2[nH]nc3nc(-c4ccc(OC)cc4)cc(C(=O)O)c23)cc1 | 654 s
57 | CC1Cc2ccccc2N1C(=O)CC1CCN(S(=O)(=O)c2ccc3c(c2)oc(=O)n3C)CC1 (stereo not drawn) | 965 s
58 | Cc1cc(C)n2nc(SCC(=O)NCc3ccc(F)cc3)nc2n1 | 671 s
59 | CC(C)C(=O)Nc1ccc(C2(C(=O)NCc3ccc(F)c(Cl)c3)CCC2)cc1 | 927 s
60 | CCCn1cnc2cc(-c3noc(CNC(=O)c4ccc(C)cc4)n3)ccc21 | 687 s
61 | Cc1cccc(CC(=O)N2C[C@@H]3C[C@H](NC(=O)c4cccs4)[C@H]2C3)c1 | 787 s
62 | Clc1ccc(-c2csc(Cc3nc(-c4ccccc4)no3)n2)cc1 | 1310 s
63 | Cn1c(SCC(N)=O)nnc1-c1sc2cc(Cl)ccc2c1Cl | 702 s
64 | COC(=O)c1ccccc1NC(=O)c1nnn(-c2cc(C)ccc2Cl)c1C | 1230 s
65 | COc1ccc(C2(C(=O)N3CC(c4ncc(C)n4Cc4cccnc4)C3)CC2)cc1 | 593 s
66 | CCn1c(=O)sc2cc(S(=O)(=O)N3CCC(C(=O)Nc4cccc(C)c4)CC3)ccc21 | 962 s

Row | SMILES | RP-LC retention time
67 | Cc1nc(-c2ccc(-c3noc(C(C)NC(=O)c4ccccc4)n3)cc2)cs1 (stereo not drawn) | 963 s
68 | Cc1ccccc1CNC(=O)c1cn(-c2ccc(-c3nc(C4CC4)no3)cn2)cn1 | 973 s
69 | O=C(NCc1cccnc1-c1ccc(F)cc1)c1ccc(F)cc1F | 690 s
70 | O=S(=O)(c1ccc2c(c1)CCC2)N1CCCn2nc(-c3cccnc3)cc2C1 | 714 s
71 | CCCn1cc(S(=O)(=O)NCc2ccccc2C(F)(F)F)c2cccnc21 | 988 s
72 | CC(C)(C)CC(=O)Nc1ccc2c(c1)N(C(=O)c1ccco1)CCC2 | 866 s
73 | CN1C(=O)CC[C@]2(C(=O)NCc3cc(F)ccc3F)CCCC[C@@H]12 | 575 s
74 | CCOC(=O)c1sc(NC(=O)C2CCC2)nc1-c1ccccc1 | 1010 s
75 | O=C(CSc1nc2ccccc2c(=O)n1Cc1cccs1)Nc1ncn[nH]1 | 670 s
76 | O=C(Cn1cnc2nc(N3CCC(C(=O)NC4CC4)CC3)sc2c1=O)NCc1cccs1 | 618 s
77 | COc1cc(Nc2c(C(=O)N3CCC(C)CC3)cnc3nc(C)ccc23)cc(OC)c1 | 662 s
78 | CCn1c(=O)sc2cc(S(=O)(=O)N3CCC(C(=O)NCc4cccc(OC)c4)CC3)ccc21 | 1000 s
79 | CC(CCNC(=O)c1cc(S(=O)(=O)N2CCCCC2)ccc1Cl)N1CCCC1 (stereo not drawn) | 643 s
80 | COC(=O)c1cn(CC(=O)Nc2cc(F)ccc2F)c2nc(C)ccc2c1=O | 727 s
81 | Cc1cc(C)c(C)c(S(=O)(=O)NC2CCN(c3ccc(=O)n(CC4CC4)n3)CC2)c1C | 1040 s
82 | CN1C(=O)C(C)(C(=O)Nc2ccccc2F)Oc2cccnc21 (stereo not drawn) | 780 s
83 | CC(=O)N1c2ccc(S(=O)(=O)N3CCCCC3)cc2CC1C(=O)N1CCC(C)CC1 (stereo not drawn) | 881 s
84 | CC1CCN(c2cc(-n3cnc(C(=O)NCC4CCCO4)c3)ncn2)CC1 (stereo not drawn) | 819 s
85 | COCc1noc([C@@H]2CC(F)(F)CN2C(=O)c2cn(C)cn2)n1 | 610 s
86 | COCCNC(=O)c1cn2cccc(C)c2n1 | 561 s
87 | Cc1ccccc1-c1noc(-c2cccnc2N2CCN(Cc3ccccc3)CC2)n1 | 803 s
88 | Cc1cc(C)c2c(N3CCOCC3)nc(C(=O)N3CCN(C4CCCCC4)CC3)nc2n1 | 574 s
